Laboratory results from the NIST ThermoML archive (doi:10.1016/j.jct.2010.12.007).
Numbers after ± are expanded uncertainties.

Legend:
[1] = Crystal; for vapor or sublimation pressure: Transpiration method; for Normal melting temperature: DTA
[2] = Molar enthalpy of transition or fusion; settings: Crystal; DSC

O=[N+]([O-])c1ccc(NS(=O)(=O)c2ccccc2)cc1 [N-(4-nitrophenyl)benzenesulfonamide]
[1]
Settings	vapor or sublimation pressure [kPa]
380.15 K	9.47e-06 ± 1.9e-06
384.15 K	1.55e-05 ± 3.2e-06
385.15 K	1.72e-05 ± 3.5e-06
387.15 K	2.09e-05 ± 4.3e-06
390.15 K	2.84e-05 ± 5.8e-06
391.15 K	3.17e-05 ± 6.5e-06
392.15 K	3.47e-05 ± 7.1e-06
393.15 K	3.88e-05 ± 7.9e-06
394.15 K	4.04e-05 ± 8.2e-06
395.15 K	4.64e-05 ± 9.4e-06
396.65 K	5.13e-05 ± 1e-05
401.15 K	8.37e-05 ± 1.7e-05
401.65 K	8.63e-05 ± 1.7e-05

Settings	Molar enthalpy of transition or fusion [kcal/mol]	Normal melting temperature [°C]
[1]	–	138.2 ± 0.5
[2]	6.86 ± 0.287	–

Nc1ccc(S(=O)(=O)Nc2ccc([N+](=O)[O-])cc2)cc1 [4-amino-N-(4-nitrophenyl)benzenesulfonamide]
[1]
Settings	vapor or sublimation pressure [kPa]
405.55 K	1.5e-06 ± 3.2e-07
409.45 K	2.18e-06 ± 4.6e-07
412.85 K	2.3e-06 ± 4.8e-07
415.15 K	3.41e-06 ± 7.1e-07
417.25 K	4.01e-06 ± 8.3e-07
418.75 K	4.34e-06 ± 9e-07
420.05 K	5.46e-06 ± 1.1e-06
421.55 K	5.63e-06 ± 1.2e-06
423.25 K	6.16e-06 ± 1.3e-06
424.65 K	7.3e-06 ± 1.5e-06
426.25 K	8.92e-06 ± 1.8e-06
428.75 K	1.05e-05 ± 2.1e-06
431.35 K	1.28e-05 ± 2.6e-06
432.05 K	1.41e-05 ± 2.9e-06
435.15 K	1.81e-05 ± 3.7e-06
438.25 K	2.28e-05 ± 4.6e-06

Settings	Molar enthalpy of transition or fusion [kcal/mol]	Normal melting temperature [°C]
[1]	–	165.8 ± 0.5
[2]	6.67 ± 0.287	–

N#Cc1ccc(NS(=O)(=O)c2ccc(N)cc2)cc1 [4-amino-N-(4-cyanophenyl)benzenesulfonamide]
[1]
Settings	vapor or sublimation pressure [kPa]
420.15 K	6.74e-06 ± 1.4e-06
420.95 K	7.23e-06 ± 1.5e-06
421.35 K	7.91e-06 ± 1.6e-06
424.75 K	1.13e-05 ± 2.3e-06
426.55 K	1.36e-05 ± 2.8e-06
428.35 K	1.66e-05 ± 3.4e-06
429.65 K	1.94e-05 ± 4e-06
431.35 K	2.11e-05 ± 4.3e-06
431.75 K	2.28e-05 ± 4.6e-06
432.35 K	2.33e-05 ± 4.7e-06
433.05 K	2.63e-05 ± 5.4e-06
434.75 K	3.17e-05 ± 6.5e-06
435.75 K	3.58e-05 ± 7.3e-06
437.15 K	4.24e-05 ± 8.6e-06
437.55 K	4.37e-05 ± 8.9e-06

Settings	Molar enthalpy of transition or fusion [kcal/mol]	Normal melting temperature [°C]
[1]	–	178.4 ± 0.5
[2]	7.39 ± 0.287	–
